Patent publication US12023390B2, “Isomerically pure 18F-labelled tetrahydrofolates” (MERCK PATENT GMBH, priority 2017, dated 2024)
Where “and” joins values, the source holds several entries; their conditions need not be identical. Identical values can stand only once.

Legend:
FR-alpha = FR-alpha (Homo sapiens, UniProt P15328); assay: Selectivity for FR-alpha versus oxidized folic acid derivative (summary statement)
[1] = Metabolite studies / in vivo stability (radio-UPLC of blood plasma, liver, urine); set-up: species or system mice; conditions: samples taken p.i.
Protocol: (§1) In order to investigate FR-specific cell uptake and internalization, cell uptake and internalization of 6R-[^18F]1 and 6S-[^18F]1 were carried out using FR-positive KB cells. Cell uptake increased constantly over time for both diastereoisomers resulting in an uptake of about 60% (calculated per 0.3 mg of protein) of total added radioactivity after 3 h of incubation at 37° C. (FIG. 22).
The folate radiotracer 6S/6R-[^18F]5 (1:1 ratio, 53.7-52.3 MBq; 0.62-1.15 nmol) were intravenously injected into mice in order to determine the in vivo stability of the tracers. […] Ice-cold methanol containing 10 mg/mL 2-mercaptoethanol and 0.025% (v/v) ammonium hydroxide was added to the blood plasma, homogenized liver and urine in order to precipitate the proteins.^6 After centrifugation, the supernatants of the blood plasma, liver and urine samples were analyzed by radio-UPLC (FIG. 4).

RT16 (FR-α) = target: T1, RT16 (FR-α) (Homo sapiens, UniProt P15328); assay: Cell uptake and internalization in FR-α transfected CHO cells (RT16); format: cell-based
T1 construct: expressed in transfected cells; host or cells: CHO cells (RT16)
T1 sequence (P15328 25-234): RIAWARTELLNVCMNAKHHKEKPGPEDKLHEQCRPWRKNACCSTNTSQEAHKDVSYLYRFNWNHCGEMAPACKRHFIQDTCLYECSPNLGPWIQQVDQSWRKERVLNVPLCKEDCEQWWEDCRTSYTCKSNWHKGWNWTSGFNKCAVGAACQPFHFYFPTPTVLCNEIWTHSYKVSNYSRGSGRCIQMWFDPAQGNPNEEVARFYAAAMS
Protocol: (§2) The uptake and internalization of the oxidized (^18F-AzaFol) and reduced ^18F-folates (6S-isomer and 6R-isomer of ^18F-5-Me-Aza-THF) in D4 and RT16 cells which express the FR-α and FR-β, […] was studied. Both cell lines were kindly provided by Larry Matherly Wayne State University, Detroit, U.S.; Golani et al., J Med Chem, 2016, 59, 7856.
The internalized fraction of the radiotracers reached 8-10% after 1 h and increased slightly up to 9-12% after 3 h incubation.

FR-positive KB cells = assay: Cell uptake and internalization using FR-positive KB cells; format: cell-based
Protocol: as §1

[2] = Distribution coefficient (log D7.4), shake flask method; format: physicochemical; conditions: n-octanol / phosphate buffer pH 7.4, room temperature
Protocol: The samples were shaken for 15 min in an overhead shaker and centrifuged for 3 min at 5000 rpm to separate the two phases. Aliquots (50 μL) of both phases were added to Eppendorftubes and then, analyzed in a γ-counter (Wizard, PerkinElmer). The partition coefficient is expressed as the radio between the radioactivity concentrations (cpm/mL) of the n-octanol and the phosphate buffer phase. Values represent the mean±standard deviation of sextuples from two independent experiments.

KB tumor-bearing mice = assay: Biodistribution studies in KB tumor-bearing mice
Protocol: Biodistribution studies were performed 2 weeks after cell inoculation. The ^18F-folate radiotracers (˜5 MBq/mouse) were injected in a volume of 100 μL into a lateral tail vein. The animals were sacrificed at 30 min, 60 min and 90 min after administration of radiotracers. Selected tissues and organs were collected, weighed, and radioactivity was measured using a γ-counter. The results were listed as a percentage of the injected radioactivity per gram of tissue mass (% IA/g), using counts of a defined volume of the original injection solution measured at the same time resulting in decay corrected values.

D4 (FR-β) = target: T2, D4 (FR-β) (Homo sapiens, UniProt P14207); assay: Cell uptake and internalization in FR-β transfected CHO cells (D4); format: cell-based
T2 construct: expressed in transfected cells; host or cells: CHO cells (D4)
T2 sequence (P14207 17-230): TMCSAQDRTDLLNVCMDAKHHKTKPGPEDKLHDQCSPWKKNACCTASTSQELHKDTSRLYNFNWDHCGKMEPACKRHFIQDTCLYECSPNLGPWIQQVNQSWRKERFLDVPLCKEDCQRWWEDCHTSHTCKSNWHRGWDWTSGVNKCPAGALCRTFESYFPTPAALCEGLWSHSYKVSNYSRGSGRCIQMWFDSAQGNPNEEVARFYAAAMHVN
Protocol: as §2
When using D4 cells that express the FR-β, the uptake of ^18F-AzaFol and the 6S-isomer of the reduced radiotracer reached approximately 70% after 1 h incubation and 80% after 3 h incubation. The internalized fraction of ^18F-AzaFol and the 6S-isomer of the reduced version was 20% and 12%, respectively, after 1 h incubation. These numbers increased slightly when the incubation time was extended to 3 h. […] No change was observed after additional two hours of incubation.

Folate Receptor = Folate Receptor (Homo sapiens, UniProt P15328); conditions: cited from earlier work
Folate Receptor, sequence (P15328 25-234): as the sequence (P15328 25-234) above

[3] = KB tumor-bearing mice, 30 min p.i.
[4] = KB tumor-bearing mice, 30 min p.i., ratio
[5] = KB tumor-bearing mice, 60 min p.i.
[6] = KB tumor-bearing mice, 60 min p.i. & Folic Acid (100 μg 10 min prior)
[7] = KB tumor-bearing mice, 60 min p.i., ratio
[8] = KB tumor-bearing mice, 90 min p.i.
[9] = KB tumor-bearing mice, 90 min p.i., ratio
[10] = KB tumor-bearing mice, 90 min p.i., listed as 6S-form
[11] = KB tumor-bearing mice, 90 min p.i., listed as 6S-isomer

FR-alpha, sequence (P15328 25-234, species assumed): as the sequence (P15328 25-234) above

CN1c2c(nc(N)[nH]c2=O)NCC1CNc1ccc(C(=O)N[C@@H](CCC(=O)O)C(=O)O)c([18F])n1 (some centres unmarked) [3′-aza-2′-[^18]fluoro-5-methyltetrahydrofolate]
fold higher selectivity for FR-alpha than the respective oxidized folic acid derivative (FR-alpha): 50 fold

6S-3′-aza-2′-[^18F]fluoro-5-MTHF [6S-[^18F]1]
in vivo stability [1]: Only intact parent compounds were found | uptake into RT16 cells (in words) (RT16 (FR-α)): significant uptake | PET/CT: KB tumor xenograft uptake (KB tumor xenografts; already 1 h p.i.): High KB tumor xenograft uptake | PET/CT: blocking studies, uptake in all FR-positive tissues (KB tumor xenografts; folic acid injected 10 minutes prior to radiotracer): remarkably reduced uptake | internalized activity (FR-positive KB cells; 37° C.): ~16% | cell uptake (% of total added radioactivity) (FR-positive KB cells; 3 h incubation at 37° C., calculated per 0.3 mg of protein): about 60% | logD7.4 [2]: −4.6 ± 0.1 | Biodistribution: Blood (KB tumor-bearing mice; [3]): 1.52 ± 0.31 % IA/g | Biodistribution: Bone (KB tumor-bearing mice; [3]): 1.70 ± 0.13 % IA/g | Biodistribution: Feaces (KB tumor-bearing mice; [3]): 3.71 ± 2.34 % IA/g | Biodistribution: Gall Bladder (KB tumor-bearing mice; [3]): 20.0 ± 9.00 % IA/g | Biodistribution: Heart (KB tumor-bearing mice; [3]): 2.02 ± 0.22 % IA/g | Biodistribution: Intestines (KB tumor-bearing mice; [3]): 2.61 ± 0.65 % IA/g | Biodistribution: KB Tumor (KB tumor-bearing mice; [3]): 11.13±0.90 % IA/g and 11.1 ± 0.90 % IA/g | Biodistribution: Kidneys (KB tumor-bearing mice; [3]): 42.5 ± 2.73 % IA/g | Biodistribution: Liver (KB tumor-bearing mice; [3]): 8.10 ± 1.16 % IA/g | Biodistribution: Lung (KB tumor-bearing mice; [3]): 2.31 ± 0.42 % IA/g | Biodistribution: Muscle (KB tumor-bearing mice; [3]): 1.36 ± 0.25 % IA/g | Biodistribution: Salivary glands (KB tumor-bearing mice; [3]): 13.8 ± 2.06 % IA/g | Biodistribution: Spleen (KB tumor-bearing mice; [3]): 1.90 ± 0.34 % IA/g | Biodistribution: Stomach (KB tumor-bearing mice; [3]): 2.54 ± 0.56 % IA/g | Tu-to-blood (KB tumor-bearing mice; [4]): 7.41 ± 0.96 | Tu-to-liver (KB tumor-bearing mice; [4]): 1.38 ± 0.16 | Biodistribution: Kidneys (KB tumor-bearing mice; KB tumor-bearing mice, 30 min p.i., listed as 6S-form): 42.5±2.73 % IA/g | Biodistribution: Liver (KB tumor-bearing mice; KB tumor-bearing mice, 30 min p.i., listed as 6S-tracer): 8.10±1.16 % IA/g | Biodistribution: Blood (KB tumor-bearing mice; [5]): 1.26 ± 0.08 % IA/g | Biodistribution: Bone (KB tumor-bearing mice; [5]): 1.38 ± 0.14 % IA/g | Biodistribution: Feaces (KB tumor-bearing mice; [5]): 4.85 ± 1.95 % IA/g | Biodistribution: Gall Bladder (KB tumor-bearing mice; [5]): 16.6 ± 8.91 % IA/g | Biodistribution: Heart (KB tumor-bearing mice; [5]): 1.53 ± 0.15 % IA/g | Biodistribution: Intestines (KB tumor-bearing mice; [5]): 2.58 ± 0.42 % IA/g | Biodistribution: KB Tumor (KB tumor-bearing mice; [5]): 14.2 ± 1.91 % IA/g | Biodistribution: Kidneys (KB tumor-bearing mice; [5]): 37.5 ± 3.61 % IA/g | Biodistribution: Liver (KB tumor-bearing mice; [5]): 6.28 ± 0.66 % IA/g | Biodistribution: Lung (KB tumor-bearing mice; [5]): 2.04 ± 0.09 % IA/g | Biodistribution: Muscle (KB tumor-bearing mice; [5]): 1.29 ± 0.14 % IA/g | Biodistribution: Salivary glands (KB tumor-bearing mice; [5]): 13.8 ± 1.28 % IA/g | Biodistribution: Spleen (KB tumor-bearing mice; [5]): 1.57 ± 0.16 % IA/g | Biodistribution: Stomach (KB tumor-bearing mice; [5]): 1.84 ± 0.33 % IA/g | Biodistribution: Blood (KB tumor-bearing mice; [6]): 1.09 ± 0.28 % IA/g | Biodistribution: Bone (KB tumor-bearing mice; [6]): 0.49 ± 0.12 % IA/g | Biodistribution: Feaces (KB tumor-bearing mice; [6]): 8.42 ± 2.10 % IA/g | Biodistribution: Gall Bladder (KB tumor-bearing mice; [6]): 5.87 ± 0.45 % IA/g | Biodistribution: Heart (KB tumor-bearing mice; [6]): 0.50 ± 0.13 % IA/g | Biodistribution: Intestines (KB tumor-bearing mice; [6]): 4.34 ± 0.93 % IA/g | Biodistribution: KB Tumor (KB tumor-bearing mice; [6]): 2.11 ± 0.38 % IA/g | Biodistribution: Kidneys (KB tumor-bearing mice; [6]): 2.28 ± 0.95 % IA/g | Biodistribution: Liver (KB tumor-bearing mice; [6]): 4.76 ± 0.87 % IA/g | Biodistribution: Lung (KB tumor-bearing mice; [6]): 0.84 ± 0.20 % IA/g | Biodistribution: Muscle (KB tumor-bearing mice; [6]): 0.26 ± 0.06 % IA/g | Biodistribution: Salivary glands (KB tumor-bearing mice; [6]): 0.89 ± 0.26 % IA/g | Biodistribution: Spleen (KB tumor-bearing mice; [6]): 0.90 ± 0.24 % IA/g | Biodistribution: Stomach (KB tumor-bearing mice; [6]): 0.73 ± 0.32 % IA/g | Tu-to-blood (KB tumor-bearing mice; [7]): 11.3 ± 1.13 | Tu-to-kidney (KB tumor-bearing mice; [7]): 0.38 ± 0.04 | Tu-to-liver (KB tumor-bearing mice; [7]): 1.87 ± 0.96 | Biodistribution: Blood (KB tumor-bearing mice; [8]): 1.16 ± 0.20 % IA/g | Biodistribution: Bone (KB tumor-bearing mice; [8]): 1.49 ± 0.30 % IA/g | Biodistribution: Feaces (KB tumor-bearing mice; [8]): 4.57 ± 1.98 % IA/g | Biodistribution: Gall Bladder (KB tumor-bearing mice; [8]): 11.4 ± 7.18 % IA/g | Biodistribution: Heart (KB tumor-bearing mice; [8]): 1.48 ± 0.17 % IA/g | Biodistribution: Intestines (KB tumor-bearing mice; [8]): 2.34 ± 0.39 % IA/g | Biodistribution: KB Tumor (KB tumor-bearing mice; [8]): 19.2 ± 4.16 % IA/g | Biodistribution: Kidneys (KB tumor-bearing mice; [8]): 42.3 ± 7.05 % IA/g | Biodistribution: Liver (KB tumor-bearing mice; [8]): 5.86 ± 1.11 % IA/g | Biodistribution: Lung (KB tumor-bearing mice; [8]): 2.08 ± 0.35 % IA/g | Biodistribution: Muscle (KB tumor-bearing mice; [8]): 1.24 ± 0.14 % IA/g | Biodistribution: Salivary glands (KB tumor-bearing mice; [8]): 21.4 ± 4.59 % IA/g | Biodistribution: Spleen (KB tumor-bearing mice; [8]): 1.82 ± 0.49 % IA/g | Biodistribution: Stomach (KB tumor-bearing mice; [8]): 1.69 ± 0.33 % IA/g | Tu-to-blood (KB tumor-bearing mice; [9]): 16.5 ± 0.59 | Tu-to-liver (KB tumor-bearing mice; [9]): 3.30 ± 0.59 | Biodistribution: Kidneys (KB tumor-bearing mice; [10]): 42.3±7.05 % IA/g | Biodistribution: Liver (KB tumor-bearing mice; [10]): 5.86±1.11 % IA/g | Biodistribution: Salivary glands (KB tumor-bearing mice; [10]): 21.4±4.59 % IA/g | Biodistribution: KB Tumor (KB tumor-bearing mice; [11]): 19.2±4.16 % IA/g | Biodistribution: Spleen (KB tumor-bearing mice; [11]): 1.82±0.49 % IA/g | Biodistribution: Liver (KB tumor-bearing mice; KB tumor-bearing mice, 90 min p.i., listed as S-isomer): 5.86±1.11 % IA/g | Specificity of tumor binding (KB tumor-bearing mice; blocking by pre-injection of folic acid): 89% | factor of increase of tumor-to-kidney ratio (KB tumor-bearing mice; from 30 min p.i. to 90 min p.i.): 1.7 | uptake into D4 cells (in words) (D4 (FR-β); D4 (FR-β) cells): significant uptake | internalized fraction (D4 (FR-β); D4 cells, 1 h incubation): 12% | uptake (D4 (FR-β); D4 cells, 1 h incubation): approximately 70% | uptake (D4 (FR-β); D4 cells, 3 h incubation): ~80%

Nc1nc2ncc(CNc3ccc(C(=O)N[C@H](CCC(=O)NC[C@H](N)C(=O)N[C@@H](CC(=O)O)C(=O)N[C@@H](CS)C(=O)O)C(=O)O)cc3)nc2c(=O)[nH]1 [EC20]
Kd (Folate Receptor): 12 nM
